The assay relates to 519858-162-T-J1-PDC complex spheroid viability. Kind of assay: Anticancer human tumor 519858-162-T-J1-PDC patient-derived colon adenocarcinoma cell line growth inhibition [GQUAD]. Particulars: for viability, T/C: stronger effect = lower value. An excerpt: DNA G-quadruplex Stabilizer Agents in Combinations in Complex Spheroids
A high-throughput screen of multi-cell type tumor spheroids was designed to identify active combinations of DNA G-quadruplex stabilizer agents and targeted small molecules. Complex spheroids include a stromal component modeled by human endothelial cells (HUVEC) and fibroblasts modeled by human mesenchymal stem cells (MSCs). The concentration ranges selected for each drug and investigational agent were based upon clinically achievable concentrations if the clinical Cmax of the agent was known.
Compounds. The drugs and investigational agents: pidnarulex (CX-5461; NSC782164), APTO-253 (NSC789042), BRACO-19 (NSC847499), peposertib (NSC802822), ceralasertib (NSC780249), elimusertib (NSC800525), camonsertib (NSC841442), AZD-1390 (NSC803789), olaparib (NSC753686), talazoparib (NSC767125), ART-558 (NSC835418), sotorasib (NSC818433), MRTX-1133 (NSC836407), SN-38 (NSC673596), topotecan (NSC609699), etoposide (NSC141540), doxorubicin (NSC123127), gemcitabine (NSC613327), 5-fluorouracil (NSC19893), paclitaxel (NSC125973), vemurafenib (NSC761431), panobinostat (NSC761190), R-306465 (JNJ-16241199; NSC773264), adavosertib (NSC754352), TP-3654 (NSC805149), carboplatin (NSC241240), KSQ-4279 (NSC840948), and staurosporine (NSC755774) were obtained from the National Cancer Institute (NCI) Developmental Therapeutics Program Chemical Repository (34). The FDA-approved anticancer drug set is available from the NCI Developmental Therapeutics Program. […] The stock solutions were prepared in dimethyl sulfoxide (DMSO, Sigma-Aldrich, St. Louis, MO, cat. D2650) at 800-fold the tested concentration and stored at -70 degrees C prior to their use. All drugs and investigational agents were tested over a range starting from a high concentration at or near the clinical Cmax and decreasing in half-log increments. If the clinical Cmax for an agent had not been determined, the highest concentration tested was 10 microM.
2.3 Cell Culture. All cells were maintained in an incubator at 37 degrees C and 5% CO2 with 95% humidity. The PDC lines were cultured according to standard operating procedures established by the NCI PDMR. All PDCs were thawed and cultured in Matrigel-coated flasks prepared with a working solution of 1X Ham's F-12 nutrient mix, without supplementation (Invitrogen, cat. 11765054), 100 U/mL penicillin-streptomycin (Invitrogen, cat. 15140122), and 2.5% Matrigel (Corning Inc., cat. 354248) for the first three passages. The 857933-349-R-J2-PDC line was cultured in 6C/Colon 1B media, which includes advanced DMEM/F-12 (Thermo Fisher Scientific, cat. 12634028), 10 mM HEPES (Thermo Fisher Scientific, cat. 15630080), 1X GlutaMAX supplement (Thermo Fisher Scientific, cat. 35050061), 0.1 mg/mL primocin (InvivoGen, cat. ant-pm-2), 10% defined fetal bovine serum, heat inactivated (HyClone Laboratories Inc., cat. SH30070.03HI), 50% L-WRN conditioned media (ATCC, cat. CRL-3276), 1.25 mM N-Acetyl-L-cysteine (Sigma-Aldrich, cat. A9165), 10 mM nicotinamide (Sigma-Aldrich, cat. N0636), 1X B-27 supplement (Thermo Fisher Scientific, cat. 17504044), 1X N-2 supplement (Thermo Fisher Scientific, cat. 17502048), 10 microM Y-27632 dihydrochloride (Tocris Bioscience, cat. 1254), and 50 ng/mL human EGF recombinant protein (Thermo Fisher Scientific, cat. PHG0311). The 485176-168-R4-J1-PDC line was cultured in Panc media, which includes all 6C/Colon 1B media components plus 100 ng/mL human FGF-10 (Thermo Fisher Scientific, cat. 100-26), 500 nM SB-431542 (Selleckchem, cat. S1067), and gastrin (Tocris, cat. 3006).
[…]

As a reminder, the viability, T/C is the ratio of treated to control. For orientation: IC50 means the concentration at which inhibition is half-maximal.

“And” between values parts separate entries of the source, which are not always exact repeats. Identical values can stand only once. Bounds are passed on as bounds.
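Note: spheroids exposed to compounds for 7 days.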

For the compound `CN(C)c1ccc(Nc2c3ccc(NC(=O)CCN4CCCC4)cc3nc3cc(NC(=O)CCN4CCCC4)ccc23)cc1`, the viability, T/C is 85.1% [middle of 7 runs] (compound 0.0316 µM) and 67.7% [middle of 7 runs] (compound 10 µM). Besides, the IC50 (compound alone, run of 02/26/2024) was above 10 µM.
As for `COc1cc(C2c3cc4c(cc3C(OC3OC5COC(C)OC5C(O)C3O)C3COC(=O)C23)OCO4)cc(OC)c1O` (stereo not drawn), the viability, T/C was 165% and 107% and 86% (compound 0.0316 µM); 90.6% and 89.7% and 81.6% (compound 0.1 µM); 82.8% and 98% and 61.3% (compound 0.316 µM); 123% and 112% and 70.1% (compound 1 µM); 75% and 96.2% and 89.7% (compound 3.16 µM); 80.6% and 72.3% and 83.6% (compound 10 µM). For the same compound, the IC50 (curve of compound) was above 10 µM.
Consider `COc1ccc([C@@H](O)c2cc(-c3ncnc4cc(N5CCOCC5)ccc34)c(F)cc2Cl)nn1`, for which the viability, T/C reads like this: (compound 0.0316 µM) 103% and 120% and 90.1%; (compound 0.1 µM) 49.1% and 113% and 99.8%; (compound 0.316 µM) 76% and 95.2% and 69%; (compound 1 µM) 94% and 100% and 121%; (compound 3.16 µM) 82.1% and 102% and 73.5%; (compound 10 µM) 66.8% and 87.3% and 67.6%. Moreover, the IC50 (curve of compound) is above 10 µM.
With `COc1cccc2c1C(=O)c1c(O)c3c(c(O)c1C2=O)CC(O)(C(=O)CO)CC3OC1CC(N)C(O)C(C)O1` (stereo not drawn), the viability, T/C by setting is: (compound 0.0316 µM) 72.4% and 79.2% and 88.8%; (compound 0.1 µM) 87.7% and 101% and 80.3%; (compound 0.316 µM) 96.6% and 91.6% and 71.9%; (compound 1 µM) 104% and 73.1% and 83.7%; (compound 3.16 µM) 68.2% and 95.1% and 53.9%; (compound 10 µM) 82.8% and 70.4% and 46.2%. Further, the IC50 (curve of compound) was > 10 µM and 5.66 µM.
For the compound `Cc1[nH]c2ccccc2c1CCNCc1ccc(/C=C/C(=O)NO)cc1`, the viability, T/C (compound 0.000999 µM) was 94.4%; the viability, T/C (compound 0.00316 µM) is 108%; the viability, T/C (compound 0.00999 µM) is 74.3%; the viability, T/C (compound 0.0316 µM) is 107%; the viability, T/C (compound 0.0999 µM) is 75.5%; the viability, T/C (compound 0.316 µM) is 50.6%. In addition, under “curve of compound”, the IC50 was above 0.316 µM.
Take `Cc1cccc(N(C)C(=O)C2C(O)CCN2c2nc(C)cc(C(F)(F)F)c2C#N)c1` (stereo not drawn): the viability, T/C by setting is: (compound 0.0316 µM) 110% and 112%; (compound 0.1 µM) 88.1% and 75.7%; (compound 0.316 µM) 95.8% and 74.5%; (compound 1 µM) 111% and 116%; (compound 3.16 µM) 106% and 101%; (compound 10 µM) 93.9% and 80.4%. Moreover, the IC50 (curve of compound) was above 10 µM.
As for `Cn1ncnc1[C@H]1c2n[nH]c(=O)c3cc(F)cc(c23)N[C@@H]1c1ccc(F)cc1`, the viability, T/C was 83.7% and 86.3% (compound 0.000999 µM); 82.9% and 98.9% (compound 0.00316 µM); 105% and 58.1% (compound 0.00999 µM); 92.4% and 96.9% (compound 0.0316 µM); 119% and 84.3% (compound 0.0999 µM); 116% and 59.9% (compound 0.316 µM). Further, the IC50 (curve of compound) was above 0.316 µM.
In the case of `Nc1ccn(C2OC(CO)C(O)C2(F)F)c(=O)n1` (stereo not drawn), the viability, T/C is 78.1% (compound 0.0316 µM); 91.4% (compound 0.1 µM); 92.2% (compound 0.316 µM); 94.6% (compound 1 µM); 96.3% (compound 3.16 µM); 79% (compound 10 µM). For the same compound, the IC50 (curve of compound) was above 10 µM.
Consider `O=C(NO)c1cnc(N2CCN(S(=O)(=O)c3ccc4ccccc4c3)CC2)nc1`, for which the viability, T/C is 97.8% and 112% (compound 0.0316 µM); 76.5% and 58.8% (compound 0.1 µM); 25.8% and 37.5% (compound 0.316 µM); 9.47% and 14.6% (compound 1 µM); 0.68% and 0.35% (compound 3.16 µM); 0.51% and 0.58% (compound 10 µM). Moreover, the IC50 (curve of compound) was 0.184 µM and 0.162 µM.
As to `O=C(c1cc(Cc2n[nH]c(=O)c3ccccc23)ccc1F)N1CCN(C(=O)C2CC2)CC1`, the viability, T/C is 86.5% and 87.2% (compound 0.0316 µM); 88.4% and 82.1% (compound 0.1 µM); 115% and 95.4% (compound 0.316 µM); 102% and 79.3% (compound 1 µM); 86.3% and 93% (compound 3.16 µM); 103% and 69.9% (compound 10 µM). For the same compound, the IC50 (curve of compound) is above 10 µM.
Regarding `O=c1[nH]cc(F)c(=O)[nH]1`, the viability, T/C by setting is: (compound 0.0316 µM) 91.9%; (compound 0.1 µM) 115%; (compound 0.316 µM) 95.7%; (compound 1 µM) 107%; (compound 3.16 µM) 77%; (compound 10 µM) 80.2%. In addition, the half-maximal inhibitory concentration (IC50) (curve of compound) is above 10 µM.

The values above are taken from PubChem BioAssay AID2060507 (Molecular Pharmacology Branch, DTP, NCI, 2025).
